{
  "source": "patent US20030211458A1",
  "about": "“Measurements of enzymatic activity in a single, individual cell in population” (priority 2000, published 2003)",
  "key": {"[1]": {"test_system": "intracellular nonspecific esterase", "experiment": "Individual-cell sequential FDA hydrolysis (KMAPP, VMAX) on CS-S cytometer", "assay_type": "cell-based, human", "details": "different cell carriers"}, "[2]": {"test_system": "intracellular nonspecific esterase", "experiment": "Individual-cell sequential FDA hydrolysis (KMAPP, VMAX) on CS-S cytometer", "assay_type": "cell-based, human", "details": "for FI rate ratios of the same trapped cells sequentially exposed to different FDA concentrations: same cell carrier; for average KMAPP / average VMAX: average of individual cells", "method": "Measuring Intracellular Nonspecific Esterase Activity in a Single Lymphocyte Using Fluorescein-Diacetate (FDA) as the Substrate.\nPhytohemagglutinin PHA (HA15, Murex Biotech) was reconstituted in 5 ml of double-distilled water and further diluted ten times. For stimulation, 10 μl of this solution was added to a 90 μl cell suspension (7×10^6 cells/ml).\nA staining solution of 3.6 μM FDA (Riedel-de Haen Ag. Seelze-Hanover) in Dulbecco Phosphate Buffered Saline (PBS, Biological Industries) was prepared as follows: 50 mg of FDA was dissolved in 5 ml of DMSO (Sigma). 7.5 μl of this solution was added to 50 ml PBS. For 0.6, 1.2 and 2.4 μM the solution was further diluted in PBS.\n30 Heparinized blood (30 ml), was taken from healthy, normal volunteers. The procedure for separating the PBMC has been described in detail, elsewhere [Sunray M, Deutsch M, Kaufman M, Tirosh R, Weinreb A, and Rachmani H. Cell Activation influences cell staining linetics, Spectrochimica Acta A (1997) 53:1645-1653]. Shortly after removing the iron absorbing cells, the remaining cells are layered on a two-layer (100% and 80%) cell density gradient (Ficoll Paque, Pharmacia 1.077 g/ml) and centrifuged. The cells accumulated at the interface between the two Ficoll layers, were collected and kept at 37° C. in 5 ml of enriched culture medium overnight. The next day the PBMC were washed and resuspended in PBS at a final concentration of 7·10^6 cells/ml. More than 70% of the cells were defined as T lymphocytes and viability, which was determined using eosin, was always higher than 90%.\nFreshly prepared PBMC (7·10^6 cells/ml) were incubated at 37° C., 5% CO2 with 5 μgr/ml PHA for 30 minutes. PBMC controls were incubated without PHA under identical conditions.\nThe multiparametric, computerized, discrete cytometer CS-S used in performing this example was described in detail in the above specified US Patents. Its central feature is a cell carrier (CC) incorporating a 100×100 dimensional array having a conical cross-section with an upper opening of ˜7 μm and lower opening of ·4 μm, each approximately 20 μm apart, in which individual cells are trapped. The cell carrier is mounted on a computer-controlled stage that enables repeated multi-scanning of the same cells.\nLoading the cells in wells traps on the Cell Carrier (CC) was carried out, as described in Deutsch M, and Weinreb A., Apparatus for High Precision Repetitive Sequential Optical Measurement of Living Cells, Cytometry (1994) 16: 214-226. An aliquot of 80 μl of unstained cell suspension (7×10^6 cells/ml) was loaded on the CC. Initial scanning was then performed in order to detect individual cell background scattering and auto-fluorescence. This undesired signal is recorded per measurement location and subtracted from the total emission signal (after exposure) in order to obtain the correct fluorescence signal.\nFor fluorescence intensity FI(t) measurements, trapped cells on the CC were sequentially exposed to increasing concentrations of FDA in PBS staining solutions.\nFollowing background measurement, the volume of PBS, which covers the cells, was pumped out and the following procedure was carried out:\nAt time point zero, 40 μl of the lowest substrate concentration solution was applied on top of the trapped cells and a pre-chosen cell field was sequentially scanned 6 times. This yielded 6 accurately timed FI data points per each individual cell at a given dye concentration. FI is usually measured utilizing epi-fluoescence optical arrangement which permits the differentiation between the excitation energy and the emitted fluorescence energy to be detected by photomultipliers, CCD detectors etc.\nThe above procedure is repeated for each different substrate solution used in the experiment.\nThis yielded six FI data points for each individual cell, per substrate concentration, from which V was extracted and the individual cell KMAPP and VMAX values were calculated. […]"}, "[3]": {"test_system": "intracellular nonspecific esterase", "experiment": "Flow cytometer (FACSCalibur) population average KMAPP and VMAX of FDA hydrolysis", "assay_type": "cell-based, human", "method": "Methods Cell Biol (1994) 41: 469-508. Four means of intracellular fluorescence intensities (IFI) were calculated from data accumulated along four time gates of 25 second each and 30 seconds apart, from which V0 was extracted. This process was sequentially performed on five different aliquots of cells (50 μl, at a concentration of 6×10^6 cells/ml) each exposed to different FDA concentrations (0.3, 0.6, 1.2, 1.8 and 2.4 μM. Introducing these average V0 in values Eq. 8 yielded population average KMAPP and VMAX of 2.16 μM and 4.32 μM and 6.6 and 5.83 in cells incubated with and without PHA. It should be noted that while KMAPP is an intrinsic value, VMAX depends on the optoelelctronic arrangement under use. Thus, obviously, at the population level, measurements carried out both on FC and average calculated from individual cell KMAPP measurement data yield similar KMAPP values, indicating the validity of the invented methodology."}, "[4]": {"test_system": "Peripheral blood lymphocytes", "details": "individual cell, FDA staining before and after incubation at 37° C., FIG. 7", "quoted_text": "Peripheral blood lymphocytes were loaded on a CC, and exposed to FDA, after which individual FI(t) was measured. […] At the end of incubation, the same cells were again exposed to the same FDA concentration and FI(t) measurements were again performed.\nSince cells are in general heterogeneous, one would expect a distribution of FI(t) rates (slopes) in the same experiment. […] Thus, in such an experimental procedure, the determining parameter is the ratio between the initial and the final slopes, namely, the ratios between FI(t) slopes prior to and after incubation (with and without drugs), as well as ratios of individual KMAPP and VMAX prior to and after incubation."}, "[5]": {"details": "1.2/0.6 μM FDA (concentration ratio 2.0)"}, "[6]": {"details": "2.4/0.6 μM FDA (concentration ratio 4.0)"}, "[7]": {"details": "3.6/0.6 μM FDA (concentration ratio 6.0)"}, "[8]": {"details": "FDA substrate, cells incubated without PHA, CS-S"}, "[9]": {"details": "FDA substrate, cells incubated without PHA"}, "[10]": {"details": "PHA-incubated vs control cells, CS-S"}},
  "data": [
    {"compound": "CC(=O)Oc1ccc2c(c1)Oc1cc(OC(C)=O)ccc1C21OC(=O)c2ccccc21", "note": "[FDA, Fluorescein-Diacetate]", "values": [
      {"measurement": "FI rate ratios of cells parallely exposed to different FDA concentrations", "setting": "[1]; [5]", "value": 1.9},
      {"measurement": "FI rate ratios of cells parallely exposed to different FDA concentrations", "setting": "[1]; [6]", "value": 4.4},
      {"measurement": "FI rate ratios of cells parallely exposed to different FDA concentrations", "setting": "[1]; [7]", "value": 6.2},
      {"measurement": "FI rate ratios of the same trapped cells sequentially exposed to different FDA concentrations", "setting": "[2]; [5]", "value": 2.1},
      {"measurement": "FI rate ratios of the same trapped cells sequentially exposed to different FDA concentrations", "setting": "[2]; [6]", "value": 3.6},
      {"measurement": "FI rate ratios of the same trapped cells sequentially exposed to different FDA concentrations", "setting": "[2]; [7]", "value": 5.6},
      {"measurement": "average KMAPP", "setting": "[2]; [8]", "value": 4.88, "unit": "µM"},
      {"measurement": "average VMAX", "setting": "[2]; [8]", "value": 695, "unit": "intensity/sec"},
      {"measurement": "population average KMAPP", "setting": "[3]; [9]", "value": 4.32, "unit": "µM"},
      {"measurement": "population average VMAX", "setting": "[3]; [9]", "value": 5.83}
    ]},
    {"compound": "Phytohemagglutinin [PHA]", "values": [
      {"measurement": "decrease in KMAPP compared to the control", "setting": "[2]; [10]", "value": 69, "unit": "%"},
      {"measurement": "decrease in VMAX compared to the control", "setting": "[2]; [10]", "value": 6, "unit": "%"},
      {"measurement": "average KMAPP", "setting": "[2]; cells incubated with PHA, FDA substrate 0.6-3.6 μM, CS-S", "value": 1.50, "unit": "µM"},
      {"measurement": "average VMAX", "setting": "[2]; cells incubated with PHA, FDA substrate, CS-S", "value": 652, "unit": "intensity/sec"},
      {"measurement": "population average VMAX", "setting": "[3]; cells incubated with PHA", "value": 6.6},
      {"measurement": "population average KMAPP", "setting": "[3]; cells incubated with PHA, FDA 0.3-2.4 μM", "value": 2.16, "unit": "µM"}
    ]},
    {"compound": "OO", "note": "[H2O2, hydrogen peroxide]", "values": [
      {"measurement": "ratio pre to post treatment slopes (FI rate), control cells relative to treated cells", "setting": "[4]", "value": "double"}
    ]}
  ]
}
